Assay results taken from patent US11247965B2 (VenatoRx Pharmaceuticals, Inc., priority 2017, dated 2022).

Experiments:
[1] = system: HBV replication in HepAD38 cells; assay: Anti-HBV activity in HepAD38 cells, extracellular HBV DNA by QPCR; format: cell-based, HBV (genotype D, serotype ayw); details: Hepatitis B virus, HePAD38, 168 h, read-out: Anti-HBV EC50, HepAD38 cells, extracellular HBV DNA by QPCR, 7 days of incubation
How it was run: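 Seven-day compound exposure (30 μM down to 10 nM, half-log steps) after tetracycline withdrawal induced HBV replication in HepAD38 cells. Extracellular viral DNA measured by QPCR (copies/mL via standard curve), normalised to DMSO wells; EC50 from 4-parameter non-linear regression.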

[2] = In vitro cytotoxicity, MTT cell viability assay in HepG2 cells; format: cell-based; details: human, Cytotoxicity CC50
How it was run: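 HepG2 cells incubated 7 days at 37 °C, 5% CO2 with compounds from 30 μM to 1.0 nM (8 half-log dilutions). Viability read as MTT formazan absorbance at 492 nm, normalised to vehicle controls; CC50 from 4-parameter non-linear regression.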

SMILES	EC50 [1]	CC50 at 7 days [2]
Cc1cc(NC(=O)c2cc(C(F)(F)C(=O)N3CCC(O)CC3)c(Cl)cc2C)ccc1F [Example 67, 4-chloro-5-(1,1-difluoro-2-(4-hydroxypiperidin-1-yl)-2-oxoethyl)-N-(4-fluoro-3-methylphenyl)-2-methylbenzamide]	< 5 µM	> 30 µM
CCCN(CCO)C(=O)C(F)(F)c1cc(C(=O)Nc2ccc(F)c(F)c2)ccc1F [Example 52, 3-(1,1-difluoro-2-((2-hydroxyethyl)(propyl)amino)-2-oxoethyl)-N-(3,4-difluorophenyl)-4-fluorobenzamide]	5 to 30 µM	> 30 µM
N#Cc1cc(NC(=O)c2ccc(F)c(C(F)(F)C(=O)N3CCC(O)C(F)(F)C3)c2)ccc1F (centres unmarked) [Example 177, N-(3-cyano-4-fluorophenyl)-3-(2-(3,3-difluoro-4-hydroxypiperidin-1-yl)-1,1-difluoro-2-oxoethyl)-4-fluorobenzamide]	< 5 µM	5 to 30 µM
Cc1cc(NC(=O)c2ccc(F)c(C(F)(F)C(=O)N3[C@@H]4COC[C@H]3CC(=O)C4)c2)ccc1F [Example 201, 3-(1,1-difluoro-2-oxo-2-((1R,5S)-7-oxo-3-oxa-9-azabicyclo[3.3.1]nonan-9-yl)ethyl)-4-fluoro-N-(4-fluoro-3-methylphenyl)benzamide]	< 5 µM	5 to 30 µM
O=C(Nc1ccc(F)c(F)c1)c1ccc(F)c(C(F)C(=O)N2CCC(O)CC2)c1 (centres unmarked) [Example 32, N-(3,4-difluorophenyl)-4-fluoro-3-(1-fluoro-2-(4-hydroxypiperidin-1-yl)-2-oxoethyl)benzamide]	< 5 µM	5 to 30 µM
Cc1cc(NC(=O)c2cc(C(F)(F)C(=O)N3[C@@H]4CC[C@H]3C[C@H](O)C4)c(F)cc2F)ccc1F [Example 218, 5-(1,1-difluoro-2-((1R,3s,5S)-3-hydroxy-8-azabicyclo[3.2.1]octan-8-yl)-2-oxoethyl)-2,4-difluoro-N-(4-fluoro-3-methylphenyl)benzamide]	< 5 µM	> 30 µM
CC(=O)NC1CCN(C(=O)C(F)(F)c2nc(C(=O)Nc3ccc(F)c(C)c3)ccc2F)CC1(C)C (centres unmarked) [Example 305, 6-(2-(4-acetamido-3,3-dimethylpiperidin-1-yl)-1,1-difluoro-2-oxoethyl)-5-fluoro-N-(4-fluoro-3-methylphenyl)picolinamide]	< 5 µM	5 to 30 µM
O=C(Nc1ccc(F)c(F)c1)c1ccc(F)c(C(F)(F)C(=O)NC2CCOCC2)c1 [Example 5, 3-(1,1-difluoro-2-oxo-2-((tetrahydro-2H-pyran-4-yl)amino)ethyl)-N-(3,4-difluorophenyl)-4-fluorobenzamide]	5 to 30 µM	5 to 30 µM
C[C@H](NC(=O)C(F)(F)c1cc(C(=O)Nc2ccc(F)c(Cl)c2)cn1C)C(F)(F)F [Example 140, (S)-N-(3-chloro-4-fluorophenyl)-5-(1,1-difluoro-2-oxo-2-((1,1,1-trifluoropropan-2-yl)amino)ethyl)-1-methyl-1H-pyrrole-3-carboxamide]	< 5 µM	> 30 µM
Cc1cc(NC(=O)c2ccn(C)c2C(F)(F)C(=O)NC(C)(C)CO)ccc1F [Example 105, 2-(1,1-difluoro-2-((1-hydroxy-2-methylpropan-2-yl)amino)-2-oxoethyl)-N-(4-fluoro-3-methylphenyl)-1-methyl-1H-pyrrole-3-carboxamide]	5 to 30 µM	> 30 µM
Cc1cc(NC(=O)c2ccc(F)c(C(F)(F)C(=O)N3CC4COCC(C3)C4O)c2)ccc1F (centres unmarked) [Example 310, 3-(1,1-difluoro-2-(9-hydroxy-3-oxa-7-azabicyclo[3.3.1]nonan-7-yl)-2-oxoethyl)-4-fluoro-N-(4-fluoro-3-methylphenyl)benzamide]	< 5 µM	> 30 µM
CC(C)(CO)NC(=O)C(F)c1cc(C(=O)Nc2ccc(F)c(F)c2)ccc1F (centres unmarked) [Example 31, N-(3,4-difluorophenyl)-4-fluoro-3-(1-fluoro-2-((1-hydroxy-2-methylpropan-2-yl)amino)-2-oxoethyl)benzamide]	5 to 30 µM	5 to 30 µM
Cc1cc(NC(=O)c2c(C)c(C(F)(F)C(=O)NC(C)(C)C)n(C)c2C)ccc1F [Example 107, 5-(2-(tert-butylamino)-1,1-difluoro-2-oxoethyl)-N-(4-fluoro-3-methylphenyl)-1,2,4-trimethyl-1H-pyrrole-3-carboxamide]	< 5 µM	> 30 µM
O=C(Nc1cc(F)c(F)c(F)c1)c1ccc(F)c(C(F)(F)C(=O)N2CCC(O)C(F)(F)C2)c1 (centres unmarked) [Example 187, 3-(2-(3,3-difluoro-4-hydroxypiperidin-1-yl)-1,1-difluoro-2-oxoethyl)-4-fluoro-N-(3,4,5-trifluorophenyl)benzamide]	< 5 µM	5 to 30 µM
Cc1ccc(C(=O)Nc2ccc(F)c(F)c2)cc1C(F)(F)C(=O)NC(C)C [Example 9, 3-(1,1-difluoro-2-(isopropylamino)-2-oxoethyl)-N-(3,4-difluorophenyl)-4-methylbenzamide]	> 30 µM	> 30 µM
O=C(Nc1ccc(F)cc1Cl)c1ccc(Cl)c(C(F)(F)C(=O)N2CCC(O)CC2)c1 [Example 41, 4-chloro-N-(2-chloro-4-fluorophenyl)-3-(1,1-difluoro-2-(4-hydroxypiperidin-1-yl)-2-oxoethyl)benzamide]	5 to 30 µM	> 30 µM
Cc1cc(NC(=O)c2ccc(F)c(C(F)(F)C(=O)N3CCC(O)(CO)CC3)c2)cc(F)n1 [Example 222, 3-(1,1-difluoro-2-(4-hydroxy-4-(hydroxymethyl)piperidin-1-yl)-2-oxoethyl)-4-fluoro-N-(2-fluoro-6-methylpyridin-4-yl)benzamide]	5 to 30 µM	> 30 µM
Cc1cc(NC(=O)c2ccc(F)c(C(F)(F)C(=O)N3[C@@H]4CC[C@H]3CC(O)(CC#N)C4)c2)ccc1F (stereo partly drawn) [Example 240, 3-(2-((1R,5S)-3-(cyanomethyl)-3-hydroxy-8-azabicyclo[3.2.1]octan-8-yl)-1,1-difluoro-2-oxoethyl)-4-fluoro-N-(4-fluoro-3-methylphenyl)benzamide]	< 5 µM	< 5 µM
O=C(Nc1ccc(F)c(F)c1)c1ccc(F)c(C(F)(F)C(=O)NC[C@@H](O)CO)c1 [Example 53, (R)—N-(3,4-difluorophenyl)-3-(2-((2,3-dihydroxypropyl)amino)-1,1-difluoro-2-oxoethyl)-4-fluorobenzamide]	< 5 µM	> 30 µM
Cc1cc(NC(=O)c2ccnc(C(F)(F)C(=O)N3CCc4nc(N)sc4C3)c2)ccc1F [Example 268, 2-(2-(2-amino-6,7-dihydrothiazolo[5,4-c]pyridin-5(4H)-yl)-1,1-difluoro-2-oxoethyl)-N-(4-fluoro-3-methylphenyl)isonicotinamide]	5 to 30 µM	> 30 µM
Cc1cc(NC(=O)c2cc(C(F)(F)C(=O)NC(C)(C)CO)n(C)c2)ccc1F [Example 104, 5-(1,1-difluoro-2-((1-hydroxy-2-methylpropan-2-yl)amino)-2-oxoethyl)-N-(4-fluoro-3-methylphenyl)-1-methyl-1H-pyrrole-3-carboxamide]	< 5 µM	> 30 µM
O=C(Nc1ccc(F)c(F)c1)c1ccc(F)c(C(F)(F)C(=O)NC2CCCC2)c1 [Example 20, 3-(2-(cyclopentylamino)-1,1-difluoro-2-oxoethyl)-N-(3,4-difluorophenyl)-4-fluorobenzamide]	5 to 30 µM	5 to 30 µM
